Our source for the activity coefficient values is the NIST ThermoML archive (doi:10.1021/je800105r).

A short description of the series: activity coefficient (dimensionless); of the first substance listed, at infinite dilution; xn = mol fraction of the nth substance listed. The conditions noted are these: Liquid, Chromatography, x1 = 0.

± gives the expanded uncertainty stated by the source.

In the case of `C#CCCCCC` [1-heptyne] + CCCCCCCCCCCCCC[P+](CCCCCC)(CCCCCC)CCCCCC.O=S(=O)([N-]S(=O)(=O)C(F)(F)F)C(F)(F)F, the activity coefficient was 0.59 ± 0.04 (303.15 K), 0.63 ± 0.04 (308.15 K), 0.66 ± 0.05 (313.15 K) and 0.7 ± 0.05 (318.15 K).
As to `C#CCCCC` [1-hexyne] + CCCCCCCCCCCCCC[P+](CCCCCC)(CCCCCC)CCCCCC.O=S(=O)([N-]S(=O)(=O)C(F)(F)F)C(F)(F)F, the activity coefficient reads like this: (303.15 K) 0.66 ± 0.05; (308.15 K) 0.68 ± 0.05; (313.15 K) 0.71 ± 0.05; (318.15 K) 0.74 ± 0.05.
The matching figures for `C=CCCCCC` [1-heptene] + CCCCCCCCCCCCCC[P+](CCCCCC)(CCCCCC)CCCCCC.O=S(=O)([N-]S(=O)(=O)C(F)(F)F)C(F)(F)F: 1 ± 0.06, 1.02 ± 0.06, 1.04 ± 0.07 and 1.09 ± 0.07.
The matching figures for `C=CCCCCCC` [oct-1-ene] + CCCCCCCCCCCCCC[P+](CCCCCC)(CCCCCC)CCCCCC.O=S(=O)([N-]S(=O)(=O)C(F)(F)F)C(F)(F)F: 1.11 ± 0.07, 1.14 ± 0.07, 1.16 ± 0.07 and 1.21 ± 0.08.
Turning to `CCCO` [propan-1-ol] + CCCCCCCCCCCCCC[P+](CCCCCC)(CCCCCC)CCCCCC.O=S(=O)([N-]S(=O)(=O)C(F)(F)F)C(F)(F)F, the activity coefficient is 1.42 ± 0.09 (303.15 K), 1.4 ± 0.09 (308.15 K), 1.39 ± 0.09 (313.15 K) and 1.38 ± 0.09 (318.15 K).
In the same order, the values of `C=CCCC` [1-pentene] + CCCCCCCCCCCCCC[P+](CCCCCC)(CCCCCC)CCCCCC.O=S(=O)([N-]S(=O)(=O)C(F)(F)F)C(F)(F)F are 0.78 ± 0.05, 0.8 ± 0.05, 0.82 ± 0.05 and 0.85 ± 0.05.
The matching figures for `C1CCCCC1` [cyclohexane] + CCCCCCCCCCCCCC[P+](CCCCCC)(CCCCCC)CCCCCC.O=S(=O)([N-]S(=O)(=O)C(F)(F)F)C(F)(F)F: 0.78 ± 0.05, 0.8 ± 0.05, 0.82 ± 0.05 and 0.85 ± 0.05.
The matching figures for `CCCCC` [pentane] + CCCCCCCCCCCCCC[P+](CCCCCC)(CCCCCC)CCCCCC.O=S(=O)([N-]S(=O)(=O)C(F)(F)F)C(F)(F)F: 0.94 ± 0.06, 0.96 ± 0.06, 0.99 ± 0.06 and 1.02 ± 0.06.
`C1CCCCCC1` [cycloheptane] + CCCCCCCCCCCCCC[P+](CCCCCC)(CCCCCC)CCCCCC.O=S(=O)([N-]S(=O)(=O)C(F)(F)F)C(F)(F)F: the activity coefficient (303.15 K) stood at 0.88 ± 0.06, the activity coefficient (308.15 K) is 0.91 ± 0.06, the activity coefficient (313.15 K) amounted to 0.92 ± 0.06 and the activity coefficient (318.15 K) was determined as 0.94 ± 0.06.
In the same order, the values of `CO` [methanol] + CCCCCCCCCCCCCC[P+](CCCCCC)(CCCCCC)CCCCCC.O=S(=O)([N-]S(=O)(=O)C(F)(F)F)C(F)(F)F are 1.26 ± 0.08, 1.24 ± 0.08, 1.23 ± 0.08 and 1.23 ± 0.08.
The matching figures for `CCCCCCCC` [octane] + CCCCCCCCCCCCCC[P+](CCCCCC)(CCCCCC)CCCCCC.O=S(=O)([N-]S(=O)(=O)C(F)(F)F)C(F)(F)F: 1.32 ± 0.09, 1.36 ± 0.09, 1.4 ± 0.09 and 1.46 ± 0.1.
The matching figures for `CCCCCC` [hexane] + CCCCCCCCCCCCCC[P+](CCCCCC)(CCCCCC)CCCCCC.O=S(=O)([N-]S(=O)(=O)C(F)(F)F)C(F)(F)F: 1.09 ± 0.07, 1.1 ± 0.07, 1.13 ± 0.07 and 1.17 ± 0.07.
On to `C#CCCCCCC` [1-octyne] + CCCCCCCCCCCCCC[P+](CCCCCC)(CCCCCC)CCCCCC.O=S(=O)([N-]S(=O)(=O)C(F)(F)F)C(F)(F)F, for which the activity coefficient reads like this: (303.15 K) 0.53 ± 0.04; (308.15 K) 0.55 ± 0.04; (313.15 K) 0.58 ± 0.04; (318.15 K) 0.63 ± 0.04.
As for `CCO` [ethanol] + CCCCCCCCCCCCCC[P+](CCCCCC)(CCCCCC)CCCCCC.O=S(=O)([N-]S(=O)(=O)C(F)(F)F)C(F)(F)F, the activity coefficient (303.15 K) was determined as 1.36 ± 0.09, the activity coefficient (308.15 K) worked out at 1.33 ± 0.09, the activity coefficient (313.15 K) was 1.31 ± 0.09 and the activity coefficient (318.15 K) was 1.3 ± 0.08.
As for `C=CCCCC` [hex-1-ene] + CCCCCCCCCCCCCC[P+](CCCCCC)(CCCCCC)CCCCCC.O=S(=O)([N-]S(=O)(=O)C(F)(F)F)C(F)(F)F, the activity coefficient worked out at 0.88 ± 0.06 (303.15 K), 0.9 ± 0.06 (308.15 K), 0.92 ± 0.06 (313.15 K) and 0.97 ± 0.06 (318.15 K).
The matching figures for `C1CCCC1` [cyclopentane] + CCCCCCCCCCCCCC[P+](CCCCCC)(CCCCCC)CCCCCC.O=S(=O)([N-]S(=O)(=O)C(F)(F)F)C(F)(F)F: 0.68 ± 0.05, 0.69 ± 0.05, 0.71 ± 0.05 and 0.73 ± 0.05.
In the same order, the values of `c1ccccc1` [benzene] + CCCCCCCCCCCCCC[P+](CCCCCC)(CCCCCC)CCCCCC.O=S(=O)([N-]S(=O)(=O)C(F)(F)F)C(F)(F)F are 0.38 ± 0.03, 0.39 ± 0.03, 0.4 ± 0.03 and 0.42 ± 0.04.
Take `CCCCCCC` [heptane] + CCCCCCCCCCCCCC[P+](CCCCCC)(CCCCCC)CCCCCC.O=S(=O)([N-]S(=O)(=O)C(F)(F)F)C(F)(F)F: the activity coefficient is 1.26 ± 0.08 (303.15 K), 1.27 ± 0.08 (308.15 K), 1.3 ± 0.08 (313.15 K) and 1.33 ± 0.09 (318.15 K).
